Test results: patent US20020055528A1, “Artemisinin analogs having antimalarial, antiproliferative, and antitumor activities and chemoselective methods of making the same” (priority 1999, published 2002)

Experiments:
Type in all cases: cell-based
UACC-62 = test: NCI 60 cell line screen (SRB), Melanoma; details: for Log10TGI: PG=0
BT-549 = test: NCI 60 cell line screen (SRB), Breast Cancer
OVCAR-3 = test: NCI 60 cell line screen (SRB), Ovarian Cancer; details: PG=0
COLO 205 = test: NCI 60 cell line screen (SRB), Colon Cancer
NCI-H226 = test: NCI 60 cell line screen (SRB), Non-Small Cell Lung Cancer; details: for Log10TGI: PG=0
NCI-H460 = test: as above; details: PG=0
MCF7 = test: NCI 60 cell line screen (SRB), Breast Cancer
MDA-MB-435 = test: NCI 60 cell line screen (SRB), Breast Cancer
TK-10 = test: NCI 60 cell line screen (SRB), Renal Cancer
OVCAR-8 = test: NCI 60 cell line screen (SRB), Ovarian Cancer
NCI/ADR-RES = test: NCI 60 cell line screen (SRB), Breast Cancer
HCT-15 = test: NCI 60 cell line screen (SRB), Colon Cancer; details: PG=0
786-0 = test: NCI 60 cell line screen (SRB), Renal Cancer; details: for Log10TGI: PG=0
LOX IMVI = test: NCI 60 cell line screen (SRB), Melanoma
CAKI-1 = test: NCI 60 cell line screen (SRB), Renal Cancer; details: Table IV (LC50, PG=−50)
MDA-MB231/ATCC = test: NCI 60 cell line screen (SRB), Breast Cancer; details: MDA- (first line of MDA-MB231/ATCC); PG=0
HCT-116 = test: NCI 60 cell line screen (SRB), Colon Cancer; details: PG=0
SW-620 = test: NCI 60 cell line screen (SRB), Colon Cancer; details: for Log10TGI: PG=0
OVCAR-5 = test: NCI 60 cell line screen (SRB), Ovarian Cancer; details: for Log10TGI: PG=0
IGROVI = test: NCI 60 cell line screen (SRB), Ovarian Cancer; details: for Log10TGI: PG=0
RPMI-8226 = test: NCI 60 cell line screen (SRB), Leukemia; details: for Log10TGI: PG=0
OVCAR-4 = test: NCI 60 cell line screen (SRB), Ovarian Cancer
NCI-H322M = test: NCI 60 cell line screen (SRB), Non-Small Cell Lung Cancer; details: for Log10GI50: PG=+50
HL-60(TB) = test: NCI 60 cell line screen (SRB), Leukemia; details: for Log10TGI: PG=0
KM12 = test: NCI 60 cell line screen (SRB), Colon Cancer; details: for Log10TGI: PG=0
MALME-3M = test: NCI 60 cell line screen (SRB), Melanoma; details: for Log10TGI: PG=0; for Log10GI50: Table IV (LC50, PG=−50)
NCI-H522 = test: NCI 60 cell line screen (SRB), Non-Small Cell Lung Cancer; details: for Log10TGI: PG=0
[1] = test system: MB231/ATCC (second line of the wrapped label, with values of its own); test: NCI 60 cell line screen (SRB), Breast Cancer
SNB-75 = test: NCI 60 cell line screen (SRB), CNS Cancer; details: PG=0
NCI-H23 = test: NCI 60 cell line screen (SRB), Non-Small Cell Lung Cancer; details: PG=0
EKVX = test: as above

Work on `CC(=O)O[C@H]1C(=O)[C@@]2(C)[C@H]([C@H](OC(=O)c3ccccc3)[C@]3(O)C[C@H](OC(=O)[C@H](O)[C@@H](NC(=O)c4ccccc4)c4ccccc4)C(C)=C1C3(C)C)[C@]1(OC(C)=O)CO[C@@H]1C[C@@H]2O` [Paclitaxel, paclitaxel, reference compound] yielded a Log10TGI (UACC-62) of −4.71 log10M, a Log10GI50 (UACC-62; PG=+50) of −10.46 log10M and a Log10GI50 (UACC-62; Table IV (LC50, PG=−50)) of −4.19 log10M. For the same molecule, the Log10GI50 (BT-549; PG=+50) was −9.81 log10M, the Log10TGI (OVCAR-3) was −4.55 log10M and the Log10GI50 (COLO 205; PG=+50) was −11.07 log10M. The Log10GI50 (COLO 205; Table IV (LC50, PG=−50)) was over −4.41 log10M, the Log10TGI (NCI-H226) was −4.80 log10M and the Log10GI50 (NCI-H226; Table IV (LC50, PG=−50)) was −4.10 log10M. It also gave a Log10TGI (NCI-H460) of −4.46 log10M, a Log10GI50 (MCF7; PG=+50) of −11.69 log10M and a Log10GI50 (MCF7; Table IV (LC50, PG=−50)) of over −4.00 log10M. For the same molecule, the Log10GI50 (MDA-MB-435; MDA-MB−435, PG=+50) was under -13.00 log10M, the Log10GI50 (TK-10; PG=+50) was −7.89 log10M and the Log10GI50 (OVCAR-8; PG=+50) was −10.75 log10M. The Log10GI50 (OVCAR-8; Table IV (LC50, PG=−50)) was over −4.00 log10M, the Log10TGI (NCI/ADR-RES; PG=0) was over −4.00 log10M and the Log10GI50 (NCI/ADR-RES; PG=+50) was −8.48 log10M. It also gave a Log10GI50 (NCI/ADR-RES; Table IV (LC50, PG=−50)) of over −4.00 log10M, a Log10TGI (HCT-15) of over −4.00 log10M and a Log10TGI (786-0) of over −4.00 log10M. The Log10GI50 (786-0; PG=+50) was −8.01 log10M, the Log10GI50 (786-0; Table IV (LC50, PG=−50)) was over −4.00 log10M and the Log10TGI (LOX IMVI; PG=0) was −4.65 log10M. It also gave a Log10GI50 (LOX IMVI; PG=+50) of −11.80 log10M, a Log10GI50 (LOX IMVI; Table IV (LC50, PG=−50)) of −4.15 log10M and a Log10GI50 (CAKI-1) of over −4.00 log10M. It also gave a Log10TGI (MDA-MB231/ATCC) of −4.84 log10M, a Log10TGI (HCT-116) of −4.82 log10M and a Log10TGI (SW-620) of over −4.00 log10M. For the same molecule, the Log10GI50 (SW-620; PG=+50) was −11.60 log10M, the Log10TGI (OVCAR-5) was −4.92 log10M and the Log10GI50 (OVCAR-5; PG=+50) was −9.38 log10M. For the same molecule, the Log10GI50 (OVCAR-5; Table IV (LC50, PG=−50)) was over −4.00 log10M, the Log10TGI (IGROVI) was −4.19 log10M and the Log10GI50 (IGROVI; PG=+50) was −8.61 log10M. The Log10GI50 (IGROVI; Table IV (LC50, PG=−50)) was over −4.00 log10M, the Log10TGI (RPMI-8226) was under -13.00 log10M and the Log10GI50 (RPMI-8226; PG=+50) was under −13.00 log10M. For the same molecule, the Log10GI50 (RPMI-8226; Table IV (LC50, PG=−50)) was over −4.00 log10M, the Log10GI50 (OVCAR-4; OVCAR-4, PG=+50) was −5.00 log10M and the Log10TGI (OVCAR-4; OVCAR−4, PG=0) was −4.19 log10M. The Log10GI50 (OVCAR-4; Table IV (LC50, PG=−50), OVCAR−4) was over −4.00 log10M, the Log10GI50 (NCI-H322M) was −10.12 log10M and the Log10TGI (HL-60(TB)) was −11.57 log10M. The Log10GI50 (HL-60(TB); PG=+50) was −11.57 log10M, the Log10GI50 (HL-60(TB); Table IV (LC50, PG=−50)) was over −4.53 log10M and the Log10TGI (KM12) was −4.36 log10M. The Log10GI50 (KM12; PG=+50) was −11.43 log10M, the Log10GI50 (KM12; Table IV (LC50, PG=−50)) was over −4.00 log10M and the Log10TGI (MALME-3M) was −4.46 log10M. For the same molecule, the Log10GI50 (MALME-3M) was −4.11 log10M, the Log10TGI (NCI-H522) was −4.92 log10M and the Log10GI50 (NCI-H522; PG=+50) was under −13.00 log10M. It also gave a Log10GI50 (NCI-H522; Table IV (LC50, PG=−50)) of over −4.00 log10M.

With `C[C@@H]1CC[C@H]2[C@@H](C)C(=O)O[C@@H]3O[C@]4(C)CC[C@@H]1[C@]32OO4` [Artemisinin, artemisinin] the Log10TGI (UACC-62) was over −4.00 log10M, the Log10GI50 (UACC-62; PG=+50) was over −4.00 log10M and the Log10GI50 (UACC-62; Table IV (LC50, PG=−50)) was over −4.00 log10M. For the same molecule, the Log10TGI (BT-549; PG=0) was over −4.00 log10M, the Log10GI50 (BT-549; Table IV (LC50, PG=−50)) was over −4.00 log10M and the Log10TGI (COLO 205; PG=0) was over −4.00 log10M. It also gave a Log10GI50 (COLO 205; PG=+50) of over −4.00 log10M, a Log10GI50 (COLO 205; Table IV (LC50, PG=−50)) of over −4.00 log10M and a Log10TGI (NCI-H226) of over −4.00 log10M. It also gave a Log10GI50 (NCI-H226; PG=+50) of over −4.00 log10M, a Log10GI50 (NCI-H226; Table IV (LC50, PG=−50)) of over −4.00 log10M and a Log10TGI ([1]; PG=0) of over −4.00 log10M. It also gave a Log10GI50 ([1]; PG=+50) of over −4.00 log10M, a Log10GI50 ([1]; Table IV (LC50, PG=−50)) of over −4.00 log10M and a Log10TGI (MCF7; PG=0) of over −4.00 log10M. The Log10GI50 (MCF7; PG=+50) was over −4.00 log10M, the Log10GI50 (MCF7; Table IV (LC50, PG=−50)) was over −4.00 log10M and the Log10TGI (SNB-75) was over −4.00 log10M. The Log10TGI (MDA-MB-435; MDA-MB-435, PG=0) was over −4.00 log10M, the Log10GI50 (MDA-MB-435; MDA-MB−435, PG=+50) was over −4.00 log10M and the Log10GI50 (MDA-MB-435; Table IV (LC50, PG=−50), MDA-MB-435) was over −4.00 log10M. It also gave a Log10TGI (NCI-H23) of over −4.00 log10M, a Log10TGI (TK-10; PG=0) of over −4.00 log10M and a Log10GI50 (TK-10; PG=+50) of over −4.00 log10M. It also gave a Log10GI50 (TK-10; Table IV (LC50, PG=−50)) of over −4.00 log10M, a Log10TGI (OVCAR-8; PG=0) of over −4.00 log10M and a Log10GI50 (OVCAR-8; PG=+50) of over −4.00 log10M. The Log10GI50 (OVCAR-8; Table IV (LC50, PG=−50)) was over −4.00 log10M, the Log10TGI (HCT-15) was over −4.00 log10M and the Log10TGI (786-0) was over −4.00 log10M. It also gave a Log10GI50 (786-0; PG=+50) of over −4.00 log10M, a Log10GI50 (786-0; Table IV (LC50, PG=−50)) of over −4.00 log10M and a Log10TGI (EKVX; PG=0) of over −4.00 log10M. It also gave a Log10GI50 (EKVX; PG=+50) of −4.17 log10M, a Log10GI50 (EKVX; Table IV (LC50, PG=−50)) of over −4.00 log10M and a Log10TGI (MDA-MB231/ATCC) of −4.00 log10M. For the same molecule, the Log10TGI (HCT-116) was over −4.00 log10M, the Log10TGI (SW-620) was over −4.00 log10M and the Log10TGI (OVCAR-5) was over −4.00 log10M. The Log10GI50 (OVCAR-5; PG=+50) was over −4.00 log10M, the Log10GI50 (OVCAR-5; Table IV (LC50, PG=−50)) was over −4.00 log10M and the Log10TGI (IGROVI) was over −4.00 log10M. For the same molecule, the Log10GI50 (IGROVI; PG=+50) was −4.31 log10M, the Log10GI50 (IGROVI; Table IV (LC50, PG=−50)) was over −4.00 log10M and the Log10TGI (RPMI-8226) was over −4.00 log10M. The Log10GI50 (RPMI-8226; PG=+50) was over −4.00 log10M, the Log10GI50 (RPMI-8226; Table IV (LC50, PG=−50)) was over −4.00 log10M and the Log10TGI (NCI-H322M; PG=0) was over −4.00 log10M. It also gave a Log10GI50 (NCI-H322M) of over −4.00 log10M, a Log10TGI (HL-60(TB)) of −4.00 log10M and a Log10GI50 (HL-60(TB); PG=+50) of −4.26 log10M. For the same molecule, the Log10GI50 (HL-60(TB); Table IV (LC50, PG=−50)) was over −4.00 log10M, the Log10TGI (KM12) was over −4.00 log10M and the Log10GI50 (KM12; PG=+50) was over −4.00 log10M. For the same molecule, the Log10GI50 (KM12; Table IV (LC50, PG=−50)) was over −4.00 log10M, the Log10TGI (MALME-3M) was −4.06 log10M and the Log10GI50 (MALME-3M) was over −4.00 log10M. It also gave a Log10TGI (NCI-H522) of over −4.00 log10M, a Log10GI50 (NCI-H522; PG=+50) of over −4.00 log10M and a Log10GI50 (NCI-H522; Table IV (LC50, PG=−50)) of over −4.00 log10M.
